Measured values: US20230265151A1, “GIP/GLP1 CO-AGONIST COMPOUNDS” (priority 2020, published 2023)
Like-named read-outs stand apart in the source and are kept apart here. *1 amine or outer side, *2 acyl side, *3 side chain or, on linkers, in order; H or OH if unused. Where a SMILES comes first, the peptide text is derived from it. Side-chain parts run from the residue outwards. [ ]: non-standard residue; d: D form. The star is where a group is joined. Decanoyl(10-(4-HOOC-PhO)) = O=C(O)c1ccc(OCCCCCCCCCC(=O)*)cc1; αMePhe(2-F) = C[C@](N)(Cc1ccccc1F)C(=O)O; γGlu = O=C(O)[C@H](CCC(=O)[*:2])N[*:1]; αMeY = C[C@](N)(Cc1ccc(O)cc1)C(=O)O; 4Pal = N[C@@H](Cc1ccncc1)C(=O)O; αMeL = CC(C)C[C@](C)(N)C(=O)O; Orn = NCCC[C@H](N)C(=O)O; AEEA = NCCOCCOCC(=O)O; Aib = CC(C)(N)C(=O)O

Assays:
Type in all cases: cell-based
[1] = molecular target: T1, hGCGR (Homo sapiens, UniProt P47871); experiment: Functional cAMP formation (HTRF) in HEK-293 clonal cells expressing hGCGR, 0.1% bovine casein, without or with 1.0% human serum albumin; conditions: hGCGR EC50, nM (SEM, n), geometric mean
T1 construct: expressed in transfected cells
T1 sequence (P47871 26-477): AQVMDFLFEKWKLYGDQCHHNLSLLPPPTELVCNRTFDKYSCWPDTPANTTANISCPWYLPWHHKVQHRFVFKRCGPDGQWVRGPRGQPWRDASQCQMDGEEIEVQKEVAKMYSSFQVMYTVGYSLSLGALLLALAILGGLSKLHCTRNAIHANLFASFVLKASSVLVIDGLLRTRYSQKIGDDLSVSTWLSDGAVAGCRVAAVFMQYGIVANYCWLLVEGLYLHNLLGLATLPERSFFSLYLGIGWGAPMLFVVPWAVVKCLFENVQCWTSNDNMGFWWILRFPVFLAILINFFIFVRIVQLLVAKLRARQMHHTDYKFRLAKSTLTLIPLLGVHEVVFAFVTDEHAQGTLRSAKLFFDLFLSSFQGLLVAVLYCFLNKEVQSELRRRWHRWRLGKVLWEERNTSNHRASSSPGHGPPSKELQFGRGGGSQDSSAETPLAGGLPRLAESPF
Method in brief: (§1)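 Cells were stimulated with peptide for 30 min at 37° C, then intracellular cAMP was measured by competitive HTRF (665/620 nm ratio) and converted to nM using a cAMP standard curve. Relative EC50 and Emax came from four-parameter logistic fits of percent maximal response against peptide concentration.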

[2] = molecular target: T2, hGIPR (Homo sapiens, UniProt P48546); experiment: Functional cAMP formation (HTRF) in HEK-293 clonal cells expressing hGIPR, 0.1% bovine casein, without or with 1.0% human serum albumin; conditions: for EC50: hGIPR EC50, nM (SEM, n), cAMP, incubated at 37° C., 0.1% bovine casein (no human serum albumin), geometric mean
T2 construct: expressed in transfected cells
T2 sequence (P48546 22-466): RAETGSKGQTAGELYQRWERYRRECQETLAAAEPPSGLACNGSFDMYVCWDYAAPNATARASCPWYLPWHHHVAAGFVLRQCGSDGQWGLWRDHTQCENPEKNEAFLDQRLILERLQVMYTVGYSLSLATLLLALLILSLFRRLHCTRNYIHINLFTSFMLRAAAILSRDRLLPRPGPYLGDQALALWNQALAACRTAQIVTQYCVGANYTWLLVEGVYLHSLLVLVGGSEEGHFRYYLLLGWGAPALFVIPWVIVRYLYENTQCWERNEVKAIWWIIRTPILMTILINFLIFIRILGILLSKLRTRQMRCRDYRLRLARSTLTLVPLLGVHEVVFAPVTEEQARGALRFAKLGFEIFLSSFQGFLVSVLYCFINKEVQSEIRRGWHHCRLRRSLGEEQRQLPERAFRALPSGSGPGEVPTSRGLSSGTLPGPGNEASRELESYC
Method in brief: as §1

[3] = molecular target: hGLP-1R (Homo sapiens, UniProt P43220); experiment: Functional cAMP formation (HTRF) in HEK-293 clonal cells expressing hGLP-1R, 0.1% bovine casein, without or with 1.0% human serum albumin; parameters: expressed in transfected cells; conditions: for EC50: hGLP-1R EC50, nM (SEM, n), geometric mean
Chain of hGLP-1R (P43220 24-463): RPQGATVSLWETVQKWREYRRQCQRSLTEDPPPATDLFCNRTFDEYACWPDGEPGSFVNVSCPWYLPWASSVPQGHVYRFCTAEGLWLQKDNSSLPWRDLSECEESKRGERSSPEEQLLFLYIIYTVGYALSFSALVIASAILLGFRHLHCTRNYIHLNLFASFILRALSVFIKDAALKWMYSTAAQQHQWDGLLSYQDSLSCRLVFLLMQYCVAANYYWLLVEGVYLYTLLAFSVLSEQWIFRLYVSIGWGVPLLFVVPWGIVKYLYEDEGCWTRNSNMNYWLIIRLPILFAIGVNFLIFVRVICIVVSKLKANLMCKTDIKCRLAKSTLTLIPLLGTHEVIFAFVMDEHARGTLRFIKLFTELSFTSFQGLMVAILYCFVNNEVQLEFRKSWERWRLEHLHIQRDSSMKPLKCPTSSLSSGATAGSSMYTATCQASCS
Method in brief: as §1

[4] = 0.1% bovine casein and 1.0% human serum albumin, 37° C.
[5] = cAMP, incubated at 37° C., 0.1% bovine casein (no human serum albumin)
[6] = HEK293, read-out: hGIPR Emax, % ± SEM, 0.1% bovine casein and 1.0% human serum albumin, 37° C., percent of maximal response to GIP(1-42)NH2
[7] = HEK293, read-out: hGLP-1R Emax, % ± SEM, 0.1% bovine casein and 1.0% human serum albumin, 37° C., percent of maximal response to GLP-1(7-36)NH2
[8] = HEK293, read-out: hGLP-1R Emax, % ± SEM, percent of maximal response to GLP-1(7-36)NH2, 37° C., 0.1% bovine casein, arithmetic mean

SMILES | EC50 [1, 4] [nM] | EC50 [1, 5] [nM] | Emax [2, 6] [%] | EC50 [2] [nM] | Emax [3, 7] [%] | EC50 [3, 5] [nM] | Emax ([2]; HEK293, read-out: hGIPR Emax, % ± SEM, percent of maximal response to GIP(1-42)NH2, 37° C., 0.1% bovine casein, arithmetic mean) [%] | Emax [3, 8] [%] | EC50 [3, 4] [nM]
CC[C@H](C)[C@H](NC(=O)[C@H](CC(C)C)NC(=O)[C@](C)(Cc1ccc(O)cc1)NC(=O)[C@@H](CCC(=O)O)NC(=O)[C@@H](NC(=O)[C@H](Cc1ccccc1)NC(=O)[C@H](CCC(=O)O)NC(=O)C(C)(C)NC(=O)[C@H](CCC(N)=O)NC(=O)[C@H](C)NC(=O)[C@H](CCCCNC(=O)COCCOCCNC(=O)COCCOCCNC(=O)CC[C@H](NC(=O)CCCCCCCCCOc1ccc(C(=O)O)cc1)C(=O)O)NC(=O)[C@H](CCCN)NC(=O)[C@H](CC(=O)O)NC(=O)[C@H](CC(C)C)NC(=O)[C@](C)(CC(C)C)NC(=O)[C@@H](NC(=O)C(C)(C)NC(=O)[C@H](Cc1ccncc1)NC(=O)[C@H](CC(=O)O)NC(=O)[C@H](CO)NC(=O)[C@@H](NC(=O)[C@](C)(Cc1ccccc1F)NC(=O)[C@@H](NC(=O)CNC(=O)[C@H](CCC(=O)O)NC(=O)C(C)(C)NC(=O)[C@@H](N)Cc1ccc(O)cc1)[C@@H](C)O)[C@@H](C)O)[C@@H](C)CC)[C@@H](C)CC)C(=O)N[C@@H](CCCCNC(=O)COCCOCCNC(=O)COCCOCCNC(=O)CC[C@H](NC(=O)CCCCCCCCCOc1ccc(C(=O)O)cc1)C(=O)O)C(=O)NCC(=O)NCC(=O)N1CCC[C@H]1C(=O)N[C@@H](CO)C(=O)N[C@@H](CO)C(=O)NCC(=O)N[C@@H](C)C(=O)N1CCC[C@H]1C(=O)N1CCC[C@H]1C(=O)N1CCC[C@H]1C(=O)N[C@@H](CO)C(N)=O [Example 244] | > 9950 | > 9950 | 89.5 | 0.0218 | 96.3 | 2.25 |  |  | 
CC[C@H](C)[C@H](NC(=O)[C@H](CC(C)C)NC(=O)[C@](C)(Cc1ccc(O)cc1)NC(=O)[C@@H](CCC(=O)O)NC(=O)[C@@H](NC(=O)[C@H](Cc1ccccc1)NC(=O)[C@H](CCC(=O)O)NC(=O)C(C)(C)NC(=O)[C@H](CCC(N)=O)NC(=O)[C@H](C)NC(=O)[C@H](CCCCNC(=O)COCCOCCNC(=O)COCCOCCNC(=O)CC[C@H](NC(=O)CCCCCCCCCOc1ccc(C(=O)O)cc1)C(=O)O)NC(=O)[C@H](CCCN)NC(=O)[C@H](CC(=O)O)NC(=O)[C@H](CC(C)C)NC(=O)[C@](C)(CC(C)C)NC(=O)[C@@H](NC(=O)C(C)(C)NC(=O)[C@H](Cc1ccncc1)NC(=O)[C@H](CC(=O)O)NC(=O)[C@H](CO)NC(=O)[C@@H](NC(=O)[C@](C)(Cc1ccccc1F)NC(=O)[C@@H](NC(=O)CNC(=O)[C@H](CCC(=O)O)NC(=O)C(C)(C)NC(=O)[C@@H](N)Cc1ccc(O)cc1)[C@@H](C)O)[C@@H](C)O)[C@@H](C)CC)[C@@H](C)CC)C(=O)N[C@@H](CCC(=O)O)C(=O)NCC(=O)NCC(=O)N1CCC[C@H]1C(=O)N[C@@H](CO)C(=O)N[C@@H](CO)C(=O)NCC(=O)N[C@@H](C)C(=O)N1CCC[C@H]1C(=O)N1CCC[C@H]1C(=O)N1CCC[C@H]1C(=O)N[C@@H](CO)C(=O)N[C@@H](CCCCNC(=O)COCCOCCNC(=O)COCCOCCNC(=O)CC[C@H](NC(=O)CCCCCCCCCOc1ccc(C(=O)O)cc1)C(=O)O)C(N)=O [Example 245] | > 9950 | > 9950 | 81.9 | 0.0195 | 93.8 | 1.88 | 96.7 | 88.9 | 27
CC[C@H](C)[C@H](NC(=O)[C@H](CCCN)NC(=O)[C@H](CC(=O)O)NC(=O)[C@H](CC(C)C)NC(=O)[C@](C)(CC(C)C)NC(=O)[C@@H](NC(=O)C(C)(C)NC(=O)[C@H](Cc1ccncc1)NC(=O)[C@H](CC(=O)O)NC(=O)[C@H](CO)NC(=O)[C@@H](NC(=O)[C@](C)(Cc1ccccc1F)NC(=O)[C@@H](NC(=O)CNC(=O)[C@H](CCC(=O)O)NC(=O)C(C)(C)NC(=O)[C@@H](N)Cc1ccc(O)cc1)[C@@H](C)O)[C@@H](C)O)[C@@H](C)CC)C(=O)N[C@@H](C)C(=O)N[C@@H](CCC(N)=O)C(=O)NC(C)(C)C(=O)N[C@@H](CCCCNC(=O)COCCOCCNC(=O)COCCOCCNC(=O)CC[C@H](NC(=O)CCCCCCCCCOc1ccc(C(=O)O)cc1)C(=O)O)C(=O)N[C@@H](Cc1ccccc1)C(=O)N[C@H](C(=O)N[C@H](CCC(=O)O)C(=O)N[C@@](C)(Cc1ccc(O)cc1)C(=O)N[C@@H](CC(C)C)C(=O)N[C@H](C(=O)N[C@@H](CCCCNC(=O)COCCOCCNC(=O)COCCOCCNC(=O)CC[C@H](NC(=O)CCCCCCCCCOc1ccc(C(=O)O)cc1)C(=O)O)C(=O)NCC(=O)NCC(=O)N1CCC[C@H]1C(=O)N[C@@H](CO)C(=O)N[C@@H](CO)C(=O)NCC(=O)N[C@@H](C)C(=O)N1CCC[C@H]1C(=O)N1CCC[C@H]1C(=O)N1CCC[C@H]1C(=O)N[C@@H](CO)C(N)=O)[C@@H](C)CC)[C@@H](C)CC [Example 247] | > 9950 | > 9950 | 90.2 | 0.022 | 109 | 1 |  |  | 
CC[C@H](C)[C@H](NC(=O)[C@H](CCCN)NC(=O)[C@H](CC(=O)O)NC(=O)[C@H](CC(C)C)NC(=O)[C@](C)(CC(C)C)NC(=O)[C@@H](NC(=O)C(C)(C)NC(=O)[C@H](Cc1ccncc1)NC(=O)[C@H](CC(=O)O)NC(=O)[C@H](CO)NC(=O)[C@@H](NC(=O)[C@](C)(Cc1ccccc1F)NC(=O)[C@@H](NC(=O)CNC(=O)[C@H](CCC(=O)O)NC(=O)C(C)(C)NC(=O)[C@@H](N)Cc1ccc(O)cc1)[C@@H](C)O)[C@@H](C)O)[C@@H](C)CC)C(=O)N[C@@H](C)C(=O)N[C@@H](CCC(N)=O)C(=O)NC(C)(C)C(=O)N[C@@H](CCCCNC(=O)COCCOCCNC(=O)COCCOCCNC(=O)CC[C@H](NC(=O)CCCCCCCCCOc1ccc(C(=O)O)cc1)C(=O)O)C(=O)N[C@@H](Cc1ccccc1)C(=O)N[C@H](C(=O)N[C@H](CCC(=O)O)C(=O)N[C@@](C)(Cc1ccc(O)cc1)C(=O)N[C@@H](CC(C)C)C(=O)N[C@H](C(=O)N[C@@H](CCC(=O)O)C(=O)NCC(=O)NCC(=O)N1CCC[C@H]1C(=O)N[C@@H](CO)C(=O)N[C@@H](CO)C(=O)NCC(=O)N[C@@H](C)C(=O)N1CCC[C@H]1C(=O)N1CCC[C@H]1C(=O)N1CCC[C@H]1C(=O)N[C@@H](CO)C(=O)N[C@@H](CCCCNC(=O)COCCOCCNC(=O)COCCOCCNC(=O)CC[C@H](NC(=O)CCCCCCCCCOc1ccc(C(=O)O)cc1)C(=O)O)C(N)=O)[C@@H](C)CC)[C@@H](C)CC [Example 248] (H-Y[Aib]EGT[αMePhe(2-F)]TSD[4Pal][Aib]I[αMeL]LD[Orn]IAQ[Aib]K([AEEA-AEEA-γGlu-Decanoyl(10-(4-HOOC-PhO))])FI[dE][αMeY]LIEGGPSSGAPPPSK([AEEA-AEEA-γGlu-Decanoyl(10-(4-HOOC-PhO))])-NH2; N-terminus assumed) | > 9950 | > 9950 | 91.8 | 0.0176 |  | 0.537 |  | 89.1 | 56.7
